Data taken from PubChem BioAssay AID180 (DTP/NCI, 2004).
Values joined by “and” are separate entries in the source; they are usually repeats but may differ in a detail not shown here. Equal entries are not always repeated.

Tested on: BDF1 mice, Adenocarcinoma 755 s.c., tumor weight T/C
Assay: NCI In Vivo Anticancer Drug Screen. Data for tumor model Adenocarcinoma 755 (subcutaneous) in B6D2F1 (BDF1) mice
Conditions: endpoint: mean tumor weight, higher = larger tumour
Procedure, shortened: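 Readout: T/C, i.e. treated-group measurement over vehicle-control measurement. Endpoint is survival or tumor size in tumor-bearing mice given compound.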

[1] = dose: 60.0 mg/kg/injection, schedule: Q01DX011 (ip), vehicle: saline
[2] = dose: 5.0 mg/kg/injection, schedule: Q01DX011 (ip), vehicle: carboxymethylcellulose (CMC)
[3] = dose: 45.0 mg/kg/injection, schedule: Q01DX011 (ip), vehicle: carboxymethylcellulose (CMC)
[4] = dose: 12.5 mg/kg/injection, schedule: Q01DX011 (ip), vehicle: methylcellulose (MC)
[5] = dose: 65.0 mg/kg/injection, schedule: Q01DX011 (ip), vehicle: methylcellulose (MC)
[6] = dose: 10.0 mg/kg/injection, schedule: Q01DX011 (ip), vehicle: saline
[7] = dose: 25.0 mg/kg/injection, schedule: Q01DX011 (ip), vehicle: methylcellulose (MC)

CC(=O)O[C@]1(C(C)=O)CC[C@H]2[C@@H]3C[C@H](C)C4=CC(=O)C=C[C@]4(C)[C@@]3(F)[C@@H](O)C[C@@]21C
T/C (dose: 4.5 mg/kg/injection, schedule: Q01DX011 (sc), vehicle: steriod suspending solution): 95 % of control | T/C (dose: 9.0 mg/kg/injection, schedule: Q01DX011 (sc), vehicle: steriod suspending solution): 60 % of control | T/C (dose: 15.0 mg/kg/injection, schedule: Q01DX011 (sc), vehicle: steriod suspending solution): 54 % of control | T/C (dose: 18.0 mg/kg/injection, schedule: Q01DX011 (sc), vehicle: steriod suspending solution): 34 % of control | T/C (dose: 30.0 mg/kg/injection, schedule: Q01DX011 (sc), vehicle: steriod suspending solution): 34 % of control | T/C (dose: 60.0 mg/kg/injection, schedule: Q01DX011 (sc), vehicle: steriod suspending solution): 19 % of control | T/C (dose: 120.0 mg/kg/injection, schedule: Q01DX011 (sc), vehicle: steriod suspending solution): 8 % of control | T/C (dose: 136.0 mg/kg/injection, schedule: Q01DX011 (sc), vehicle: steriod suspending solution): 17 % of control

CCOC(=O)c1cc[c]([Sb](=[O])([OH])[OH])cc1
T/C (dose: 12.0 mg/kg/injection, schedule: Q01DX011 (ip), vehicle: methylcellulose (MC)): 116 % of control | T/C (dose: 15.0 mg/kg/injection, schedule: Q01DX011 (ip), vehicle: carboxymethylcellulose (CMC)): 70 % of control | T/C (dose: 50.0 mg/kg/injection, schedule: Q01DX011 (ip), vehicle: methylcellulose (MC)): 55 % of control | T/C (dose: 100.0 mg/kg/injection, schedule: Q01DX011 (ip), vehicle: methylcellulose (MC)): 102 % of control

CNc1ncnc2c1ncn2C1CC(O)C(CO)O1 (centres undefined)
T/C [1]: 92 % of control | T/C (dose: 120.0 mg/kg/injection, schedule: Q01DX011 (ip), vehicle: saline): 94 % of control

Cn1cc(F)c(=O)[nH]c1=O
T/C [2]: 86 % of control | T/C (dose: 10.0 mg/kg/injection, schedule: Q01DX011 (ip), vehicle: carboxymethylcellulose (CMC)): 117 % of control | T/C (dose: 20.0 mg/kg/injection, schedule: Q01DX011 (ip), vehicle: carboxymethylcellulose (CMC)): 87 % of control | T/C (dose: 40.0 mg/kg/injection, schedule: Q01DX011 (ip), vehicle: carboxymethylcellulose (CMC)): 99 % of control

O=C(O)CCc1c[nH]c2ccc(N(CCCl)CCCl)cc12
T/C (dose: 1.2 mg/kg/injection, schedule: Q01DX011 (ip), vehicle: carboxymethylcellulose (CMC)): 90 % of control | T/C (dose: 2.5 mg/kg/injection, schedule: Q01DX011 (ip), vehicle: carboxymethylcellulose (CMC)): 64 % of control | T/C [2]: 74 % of control

On1cnc(=S)c2[nH]cnc21
T/C (dose: 125.0 mg/kg/injection, schedule: Q01DX011 (ip), vehicle: carboxymethylcellulose (CMC)): 5 % of control

COc1ccc(C[C@H](N)C(=O)NC2C(CO)OC(n3cnc4c(N(C)C)ncnc43)C2O)cc1 (some centres undefined)
T/C (dose: 9.94 mg/kg/injection, schedule: Q01DX011 (ip), vehicle: carboxymethylcellulose (CMC)): 104 % of control | T/C (dose: 13.25 mg/kg/injection, schedule: Q01DX011 (ip), vehicle: carboxymethylcellulose (CMC)): 119 % of control | T/C (dose: 17.06 mg/kg/injection, schedule: Q01DX011 (ip), vehicle: carboxymethylcellulose (CMC)): 73 % of control | T/C (dose: 19.88 mg/kg/injection, schedule: Q01DX011 (ip), vehicle: carboxymethylcellulose (CMC)): 174 % of control | T/C (dose: 23.0 mg/kg/injection, schedule: Q01DX011 (ip), vehicle: carboxymethylcellulose (CMC)): 67 % of control | T/C (dose: 26.5 mg/kg/injection, schedule: Q01DX011 (ip), vehicle: carboxymethylcellulose (CMC)): 70 % of control | T/C (dose: 31.8 mg/kg/injection, schedule: Q01DX011 (ip), vehicle: carboxymethylcellulose (CMC)): 47 % of control and 48 % of control | T/C (dose: 34.13 mg/kg/injection, schedule: Q01DX011 (ip), vehicle: carboxymethylcellulose (CMC)): 57 % of control | T/C [3]: 70 % of control | T/C (dose: 68.25 mg/kg/injection, schedule: Q01DX011 (ip), vehicle: carboxymethylcellulose (CMC)): 50 % of control | T/C (dose: 79.5 mg/kg/injection, schedule: Q01DX011 (ip), vehicle: carboxymethylcellulose (CMC)): 14 % of control | T/C (dose: 90.0 mg/kg/injection, schedule: Q01DX011 (ip), vehicle: carboxymethylcellulose (CMC)): 51 % of control

C=CC(COC(C)=O)N1CC1 (centres undefined)
T/C (dose: 3.25 mg/kg/injection, schedule: Q01DX011 (ip), vehicle: saline): 58 % of control and 76 % of control | T/C (dose: 3.25 mg/kg/injection, schedule: Q01DX011 (oral), vehicle: saline): 193 % of control | T/C (dose: 7.5 mg/kg/injection, schedule: Q01DX011 (oral), vehicle: saline): 228 % of control | T/C (dose: 15.0 mg/kg/injection, schedule: Q01DX011 (oral), vehicle: saline): 157 % of control | T/C (dose: 30.0 mg/kg/injection, schedule: Q01DX011 (oral), vehicle: saline): 19 % of control

CCCNc1ncnc2c1cnn2C1CCCCO1 (centres undefined)
T/C (dose: 3.12 mg/kg/injection, schedule: Q01DX011 (ip), vehicle: methylcellulose (MC)): 67 % of control | T/C (dose: 6.25 mg/kg/injection, schedule: Q01DX011 (ip), vehicle: methylcellulose (MC)): 54 % of control | T/C [4]: 44 % of control

Cc1ccc(N=Nc2c(S(=O)(=O)O)cc3cc(NC(=O)Nc4ccc5c(O)c(N=Nc6ccc7cc(S(=O)(=O)O)ccc7c6)c(S(=O)(=O)O)cc5c4)ccc3c2O)cc1
T/C (dose: 45.0 mg/kg/injection, schedule: Q01DX011 (ip), vehicle: methylcellulose (MC)): 66 % of control | T/C [5]: 42 % of control | T/C (dose: 150.0 mg/kg/injection, schedule: Q01DX011 (ip), vehicle: methylcellulose (MC)): 30 % of control

Nc1ccc2cc3ccccc3cc2c1
T/C [6]: 80 % of control | T/C (dose: 10.5 mg/kg/injection, schedule: Q01DX011 (ip), vehicle: carboxymethylcellulose (CMC)): 62 % of control | T/C (dose: 21.0 mg/kg/injection, schedule: Q01DX011 (ip), vehicle: carboxymethylcellulose (CMC)): 40 % of control | T/C (dose: 21.0 mg/kg/injection, schedule: Q01DX011 (ip), vehicle: saline): 41 % of control | T/C (dose: 42.0 mg/kg/injection, schedule: Q01DX011 (ip), vehicle: saline): 37 % of control | T/C (dose: 84.0 mg/kg/injection, schedule: Q01DX011 (ip), vehicle: saline): 29 % of control

Nc1nc(Cl)cc(Nc2cccc(Cl)c2)n1
T/C (dose: 15.0 mg/kg/injection, schedule: Q01DX011 (ip), vehicle: methylcellulose (MC)): 99 % of control | T/C (dose: 31.0 mg/kg/injection, schedule: Q01DX011 (ip), vehicle: methylcellulose (MC)): 104 % of control | T/C (dose: 62.0 mg/kg/injection, schedule: Q01DX011 (ip), vehicle: methylcellulose (MC)): 103 % of control | T/C (dose: 125.0 mg/kg/injection, schedule: Q01DX011 (ip), vehicle: methylcellulose (MC)): 94 % of control | T/C (dose: 250.0 mg/kg/injection, schedule: Q01DX011 (ip), vehicle: methylcellulose (MC)): 68 % of control

NC(=O)c1cc(N)nc(Cl)n1
T/C (dose: 15.0 mg/kg/injection, schedule: Q01DX011 (ip), vehicle: saline): 102 % of control | T/C (dose: 31.0 mg/kg/injection, schedule: Q01DX011 (ip), vehicle: saline): 90 % of control | T/C (dose: 62.0 mg/kg/injection, schedule: Q01DX011 (ip), vehicle: saline): 87 % of control | T/C (dose: 125.0 mg/kg/injection, schedule: Q01DX011 (ip), vehicle: saline): 83 % of control | T/C (dose: 250.0 mg/kg/injection, schedule: Q01DX011 (ip), vehicle: saline): 61 % of control

Nc1nc(SCc2cccc(Br)c2)c2ncn(C3OC(CO)C(O)C3O)c2n1 (centres undefined)
T/C (dose: 1.5 mg/kg/injection, schedule: Q01DX011 (ip), vehicle: methylcellulose (MC)): 84 % of control | T/C (dose: 3.1 mg/kg/injection, schedule: Q01DX011 (ip), vehicle: methylcellulose (MC)): 62 % of control | T/C (dose: 6.2 mg/kg/injection, schedule: Q01DX011 (ip), vehicle: methylcellulose (MC)): 12 % of control and 24 % of control | T/C [4]: 1 % of control | T/C [7]: 2 % of control

CS(=O)(=O)OCCC(=O)NCCNC(=O)CCOS(C)(=O)=O
T/C (dose: 6.3 mg/kg/injection, schedule: Q01DX011 (ip), vehicle: saline): 167 % of control | T/C [6]: 64 % of control | T/C (dose: 20.0 mg/kg/injection, schedule: Q01DX011 (ip), vehicle: saline): 120 % of control | T/C [7]: 4 % of control | T/C (dose: 25.0 mg/kg/injection, schedule: Q01DX011 (ip), vehicle: saline): 65 % of control | T/C (dose: 30.0 mg/kg/injection, schedule: Q01DX011 (ip), vehicle: saline): 20 % of control | T/C (dose: 40.0 mg/kg/injection, schedule: Q01DX011 (ip), vehicle: saline): 12 % of control | T/C (dose: 50.0 mg/kg/injection, schedule: Q01DX011 (ip), vehicle: saline): 5 % of control and 10 % of control | T/C [1]: 1 % of control

Cc1ccc(C)c(N=Nc2c(S(=O)(=O)O)cc3cc(NC(=O)Nc4ccc5c(O)c(N=Nc6ccc7cc(S(=O)(=O)O)ccc7c6)c(S(=O)(=O)O)cc5c4)ccc3c2O)c1
T/C [3]: 59 % of control

CCC(C)Cn1cnc2c(SCc3ccccc3F)nc(N)nc21 (centres undefined)
T/C (dose: 20.0 mg/kg/injection, schedule: Q01DX011 (ip), vehicle: methylcellulose (MC)): 64 % of control | T/C [5]: 76 % of control | T/C (dose: 200.0 mg/kg/injection, schedule: Q01DX011 (ip), vehicle: methylcellulose (MC)): 30 % of control
